“Also recorded” adds a separate entry of the source.
Assay: solubility in solvents and buffers
Format: physicochemical

CCCCCCCCCCCC/C=C/CCCCC(=O)Oc1nc2ccccc2nc1OP(O)(=S)OCCCCCCCCCCCCCCCC (stereo not shown) [streptolipin, Nonadeca-6-enoic acid-3-(hexadecyloxy-hydroxy-thiophosphoryloxy)-quinoxalin-2-yl ester]
Solubility response (5% acetic acid): Insoluble | Solubility response (5% sodium bicarbonate): Insoluble | Solubility response (5% sodium hydroxide): Insoluble | Solubility response (Acetone): Soluble | Solubility response (Acetonitrile): slightly soluble; also recorded: Sparingly soluble | Solubility response (Chloroform): Soluble | Solubility response (Diethyl ether): slightly soluble; also recorded: Sparingly soluble | Solubility response (Dimethyl sulphoxide): Soluble | Solubility response (Ethanol): Sparingly soluble | Solubility response (Ethyl acetate): slightly soluble; also recorded: Sparingly soluble | Solubility response (Hexane): Sparingly soluble | Solubility response (Methanol): slightly soluble; also recorded: Sparingly soluble | Solubility response (Phosphate buffer (pH 7.4-8.0)): Insoluble | Solubility response (acetate buffer (pH 5.0, 6.0)): Insoluble | Solubility response (tris buffer (pH 8.0, 9.0)): Insoluble | Solubility response (water): Insoluble
